Experimental data reported in publication PMC3742231 (International Journal of Molecular Sciences, 2013).
Where two headings read alike, the source gives them in different places.

How the values were obtained:
[1] = Overall safety in the three clinical studies; assay type: in vivo, human; settings: healthy postmenopausal women, with and without ospemifene
Excerpt: All experiments with human subjects were based on voluntary informed consent and the clinical study protocols had appropriate ethical and regulatory approval. Subjects were asked to immediately report any significant adverse events (AEs) that occurred during the study; minor AEs were reported at clinic visits. AEs were coded and classified according to the Medical Dictionary for Regulatory Activities.

CYP2D6 = CYP2D6 (Homo sapiens, UniProt P10635); test: N-in-one CYP inhibition assay in human liver microsomes; type of inhibition
Experimental: (§1) Human liver microsomes were prepared and pooled from ten human livers (HL20–24,28–32) as previously described. Human liver samples were obtained from the University Hospital of Oulu as surplus tissue from cadaver kidney transplant donors. The collection of surplus tissue was approved by the Ethics Committee of the Medical Faculty of the University of Oulu, Finland. All donors were Caucasians ranging in age from 21 to 62 years; four were female and six were male. Detailed information on each donor has been published previously. Protein concentrations were measured using the Bradford method.
(§2) In vitro inhibition of CYP isoforms was first assessed using the N-in-one approach (also called the cocktail approach). CYP-selective substrates and reactions are listed in Table 1; concentrations were roughly at or below the respective Michaelis-Menten coefficients. […] A Micromass LCT time-of-flight high-resolution mass spectrometer (Micromass Ltd., Manchester, UK) equipped with a Z-spray electrospray ionization source was used for the monitoring of CYP-selective reactions. Integrated mass chromatogram peak areas were normalized versus internal standards before comparing metabolites in different preparations. More details of the assay are available in previous publications.
(§3) Dixon, Lineweaver-Burk, Hanes, and Hofstee plots were used for the analysis of the type of inhibition.

CYP2C8 = target: T1, CYP2C8 (Homo sapiens, UniProt P10632); test: as above
T1 sequence (P10632 1-490): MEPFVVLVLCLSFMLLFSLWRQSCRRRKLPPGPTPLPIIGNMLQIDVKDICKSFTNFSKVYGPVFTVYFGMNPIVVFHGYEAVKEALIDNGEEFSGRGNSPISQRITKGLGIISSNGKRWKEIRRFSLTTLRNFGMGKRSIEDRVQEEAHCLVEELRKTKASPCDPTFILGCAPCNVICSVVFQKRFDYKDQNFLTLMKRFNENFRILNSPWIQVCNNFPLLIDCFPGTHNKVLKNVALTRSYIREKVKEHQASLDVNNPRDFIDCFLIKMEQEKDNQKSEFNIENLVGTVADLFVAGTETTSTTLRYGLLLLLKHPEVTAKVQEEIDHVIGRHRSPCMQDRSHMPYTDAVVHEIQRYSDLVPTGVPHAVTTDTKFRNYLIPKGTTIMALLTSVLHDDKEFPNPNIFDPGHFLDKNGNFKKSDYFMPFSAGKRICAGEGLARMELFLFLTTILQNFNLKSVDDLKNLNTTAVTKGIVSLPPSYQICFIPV
Experimental: as §1, §2, §3

CYP2C19 = CYP2C19 (Homo sapiens, UniProt P33261); test: biochemical; settings: for IC50: human liver microsomes, probe 2 μM
Experimental: as §1, §2, §3

CYP2B6 = target: T2, CYP2B6 (Homo sapiens, UniProt P20813); test: biochemical
T2 sequence (P20813 1-491): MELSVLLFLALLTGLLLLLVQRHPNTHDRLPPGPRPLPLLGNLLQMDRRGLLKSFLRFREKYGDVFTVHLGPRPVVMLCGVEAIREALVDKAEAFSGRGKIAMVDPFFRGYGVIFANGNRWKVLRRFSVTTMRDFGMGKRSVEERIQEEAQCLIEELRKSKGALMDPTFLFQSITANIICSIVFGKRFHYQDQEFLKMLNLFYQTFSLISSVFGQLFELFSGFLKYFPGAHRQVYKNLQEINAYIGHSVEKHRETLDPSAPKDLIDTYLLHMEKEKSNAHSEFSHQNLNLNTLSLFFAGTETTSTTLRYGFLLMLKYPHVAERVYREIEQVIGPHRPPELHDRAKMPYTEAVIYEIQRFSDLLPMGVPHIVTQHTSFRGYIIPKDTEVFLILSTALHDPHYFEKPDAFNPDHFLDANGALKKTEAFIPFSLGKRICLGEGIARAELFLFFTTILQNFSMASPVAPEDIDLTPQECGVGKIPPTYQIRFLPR
Experimental: as §1, §2, §3

CYP3A4 = CYP3A4 (Homo sapiens, UniProt P08684); test: biochemical; settings: human liver microsomes
Experimental: as §1, §2

CYP1A2 = target: T3, CYP1A2 (Homo sapiens, UniProt P05177); test: biochemical
T3 sequence (P05177 1-516): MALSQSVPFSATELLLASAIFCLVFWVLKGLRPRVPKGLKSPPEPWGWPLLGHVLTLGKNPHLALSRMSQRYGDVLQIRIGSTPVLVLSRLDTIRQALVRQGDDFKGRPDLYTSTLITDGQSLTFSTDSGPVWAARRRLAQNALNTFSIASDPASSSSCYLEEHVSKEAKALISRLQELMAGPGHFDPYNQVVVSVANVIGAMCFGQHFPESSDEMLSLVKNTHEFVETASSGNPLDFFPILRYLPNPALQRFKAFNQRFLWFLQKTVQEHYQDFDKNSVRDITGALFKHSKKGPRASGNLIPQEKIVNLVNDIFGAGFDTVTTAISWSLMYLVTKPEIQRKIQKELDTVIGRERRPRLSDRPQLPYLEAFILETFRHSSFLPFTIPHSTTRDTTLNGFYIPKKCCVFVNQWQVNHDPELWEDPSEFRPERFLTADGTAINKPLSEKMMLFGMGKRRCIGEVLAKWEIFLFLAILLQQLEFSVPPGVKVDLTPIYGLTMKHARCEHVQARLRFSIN
Experimental: as §1, §2

CYP2E1 = CYP2E1 (Homo sapiens, UniProt P05181); test: N-in-one CYP inhibition assay in human liver microsomes
Experimental: as §1, §2

[2] = cited from earlier work
[3] = steady state, converted from ng/mL

Sequence of CYP2C19 (P33261 whole entry): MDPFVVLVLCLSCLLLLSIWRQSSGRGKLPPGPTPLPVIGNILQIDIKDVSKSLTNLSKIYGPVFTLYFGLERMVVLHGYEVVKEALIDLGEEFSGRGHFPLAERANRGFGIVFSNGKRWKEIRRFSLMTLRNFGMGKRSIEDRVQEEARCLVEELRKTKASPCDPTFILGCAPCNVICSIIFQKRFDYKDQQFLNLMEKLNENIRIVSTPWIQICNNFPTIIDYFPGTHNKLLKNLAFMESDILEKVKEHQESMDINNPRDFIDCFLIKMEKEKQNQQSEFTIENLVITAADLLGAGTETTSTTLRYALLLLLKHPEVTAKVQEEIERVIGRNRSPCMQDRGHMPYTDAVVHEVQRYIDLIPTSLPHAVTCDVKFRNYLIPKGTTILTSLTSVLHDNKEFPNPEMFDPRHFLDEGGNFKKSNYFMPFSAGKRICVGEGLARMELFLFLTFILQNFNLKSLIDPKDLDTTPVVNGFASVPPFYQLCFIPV
Sequence of CYP3A4 (P08684 whole entry): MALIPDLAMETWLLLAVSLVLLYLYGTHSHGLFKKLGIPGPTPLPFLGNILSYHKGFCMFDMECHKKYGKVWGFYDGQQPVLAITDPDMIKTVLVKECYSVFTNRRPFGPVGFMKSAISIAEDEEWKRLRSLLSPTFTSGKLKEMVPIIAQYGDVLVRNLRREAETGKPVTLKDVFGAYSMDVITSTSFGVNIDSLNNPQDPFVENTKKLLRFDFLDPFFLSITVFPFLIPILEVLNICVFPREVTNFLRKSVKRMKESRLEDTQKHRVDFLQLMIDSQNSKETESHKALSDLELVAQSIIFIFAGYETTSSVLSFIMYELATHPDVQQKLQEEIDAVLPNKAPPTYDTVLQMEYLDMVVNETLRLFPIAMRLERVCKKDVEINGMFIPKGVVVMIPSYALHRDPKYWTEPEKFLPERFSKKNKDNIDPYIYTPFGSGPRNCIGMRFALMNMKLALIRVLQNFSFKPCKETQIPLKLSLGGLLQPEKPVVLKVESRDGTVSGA
Sequence of CYP2D6 (P10635 whole entry): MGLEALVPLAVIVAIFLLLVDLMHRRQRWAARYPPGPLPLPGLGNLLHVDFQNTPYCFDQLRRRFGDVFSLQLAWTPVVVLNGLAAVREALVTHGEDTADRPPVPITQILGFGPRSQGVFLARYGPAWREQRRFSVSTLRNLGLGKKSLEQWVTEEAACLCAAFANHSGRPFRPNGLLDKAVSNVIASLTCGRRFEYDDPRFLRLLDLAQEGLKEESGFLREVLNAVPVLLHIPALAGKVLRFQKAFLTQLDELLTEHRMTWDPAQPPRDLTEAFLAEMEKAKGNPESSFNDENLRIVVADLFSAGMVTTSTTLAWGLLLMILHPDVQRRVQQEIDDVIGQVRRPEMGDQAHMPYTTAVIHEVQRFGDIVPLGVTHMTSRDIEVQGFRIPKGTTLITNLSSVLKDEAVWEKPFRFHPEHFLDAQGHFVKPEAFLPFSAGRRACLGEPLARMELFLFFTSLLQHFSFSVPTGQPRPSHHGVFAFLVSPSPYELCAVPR
Sequence of CYP2E1 (P05181 whole entry): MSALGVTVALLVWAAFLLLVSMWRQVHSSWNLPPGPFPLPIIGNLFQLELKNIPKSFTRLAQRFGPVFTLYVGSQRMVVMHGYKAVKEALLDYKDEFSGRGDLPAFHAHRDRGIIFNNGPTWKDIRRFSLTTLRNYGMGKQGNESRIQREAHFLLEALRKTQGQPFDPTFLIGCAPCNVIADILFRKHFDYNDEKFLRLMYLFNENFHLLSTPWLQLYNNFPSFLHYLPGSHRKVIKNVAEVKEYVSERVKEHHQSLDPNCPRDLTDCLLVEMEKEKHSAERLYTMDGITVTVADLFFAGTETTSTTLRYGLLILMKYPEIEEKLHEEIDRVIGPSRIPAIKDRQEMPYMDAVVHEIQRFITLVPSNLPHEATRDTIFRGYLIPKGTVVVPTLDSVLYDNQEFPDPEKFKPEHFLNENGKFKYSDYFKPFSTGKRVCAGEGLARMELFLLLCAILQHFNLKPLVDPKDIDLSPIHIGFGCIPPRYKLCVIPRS

For `OCCOc1ccc(/C(=C(/CCCl)c2ccccc2)c2ccccc2)cc1` [Ospemifene], the Tolerability [1] was “well tolerated”, the IC50 (CYP2D6) was 48.7 µM and the Type of inhibition (CYP2D6; results not shown) was “competitive”. For the same compound, the IC50 (CYP2C8) was 36.4 µM, the Type of inhibition (CYP2C8; results not shown) was “likely competitive” and the IC50 (CYP2C19; IC50, Omeprazole 5-hydroxylation) was 22.5 µM. For the same compound, the IC50 (CYP2C19; IC50, Omeprazole demethylation) was 47.2 µM, the Type of inhibition (CYP2C19; results not shown) was “noncompetitive” and the IC50 (CYP2B6) was 7.8 µM. For the same compound, the Type of inhibition (CYP2B6; results not shown) was “competitive”, the IC50 (CYP3A4; IC50, Midazolam 1′-hydroxylation, probe 0.4 μM) was over 100 µM and the IC50 (CYP3A4; IC50, Omeprazole 3-hydroxylation, probe 2 μM) was 37.9 µM. It also gave an IC50 (CYP3A4; IC50, Omeprazole sulfoxidation, probe 2 μM) of over 100 µM, an IC50 (CYP3A4; IC50, Testosterone 6β-hydroxylation, probe 1 μM) of over 100 µM and an IC50 (CYP1A2) of over 100 µM. For the same compound, the IC50 (CYP2E1) was over 100 µM, the average plasma half-life ([2]; introduction, no reference given) was “about 20 h” and the “Cav at steady state” value [2, 3] was about 600 nM. For the same compound, the “Cmin at steady state” value [2, 3] was about 250 nM, the Cmax ([2]; steady state, converted from ng/mL, read-out: mean Cmax at steady state) was about 2000 nM and the “Cav at steady state” value ([2]; steady state) was 227 ng/mL. For the same compound, the “Cmin at steady state” value ([2]; steady state) was 94 ng/mL and the “mean Cmax at steady state” value ([2]; steady state) was 785 ng/mL.
